From patent US20080200438A1, “Treatment of Autoimmune Diseases” (priority 2005, published 2008)
“Also recorded” adds a separate entry of the source.

Key:
[1] = system: acute experimental autoimmune encephalomyelitis (EAE); test: Acute EAE model; type: in vivo, Lewis rat; conditions: for Prevention of disease symptoms in the acute EAE model: doses between 0.1 and 10 mg/kg/day, oral
chronic EAE = test: Chronic EAE model; type: in vivo, DA rat
Procedure: Induction of AEA in DA rat is induced as described by Lorentzen et al, 1995, J. Neuroimmunol.; 63(2):193-205 and Adelmann et al, 1995, J. Neuroimmunol.; 63(1):17-27. Briefly, rats are immunized with a mixture of DA rat brain and DA rat and bovine spinal cord homogenate supplemented with 0.02 μg/ml purified recombinant rat MOG protein. The mixture is homogenized and then mixed 1:1 with complete Freund's adjuvant containing 4 mg/ml M. tuberculosis H37RA(CFA). The resultant mixture is then homogenized using a Polytron PT3100 homogenizer (Kinematica, Lucerne, Switzerland). Rats are then injected subcutaneously at the dorsal root of tail with a single injection of 200 μl antigen/CFA. The resultant chronic disease is evaluated using numeric scale of progressive paralysis: 0, no paralysis; 1, loss of tail tonicity; 2, hindlimb weakening or ataxia; 3, hindlimb paralysis with or without urinary incontinence; 4, hindlimb and forelimb paralysis; 5, moribund or death. Clinical scores are evaluated on a daily basis, while body weight is determined every other day. […] Treatment of animals begins at the peak clinical disease on the 12th day and continues daily the 33rd day post-immunization (total 22 days). The test compound or vehicle (for the control groups) is administered orally daily.

chronic-relapsing EAE = test: Chronic-relapsing EAE model; type: in vivo, Lewis rat; conditions: 0.3 mg/kg/day orally, day 16 to day 31
Excerpt: Animal models: The monophasic model of acute experimental autoimmune encephalomyelitis (EAE) and the chronic relapsing form are considered to be instructive animal models for multiple sclerosis. EAE can be induced in susceptible animals by a single injection of CNS tissue or MBP emulsified in complete Freund's adjuvant into the base of the tail. A monophasic acute paralytic disease appears in susceptible rat strains, e.g., Lewis, Wistar rat, about 8-11 days post-sensitization. The symptomatic rats recover within the following 7 days, but in other species the attack is usually lethal. In the chronic relapsing disease models rats undergo one to three relapses following the acute disease bout. These relapses are usually from very mild to severe and are observed within 20-100 days after the acute bout.
Chronic-relapsing EAE is induced by injecting an emulsion of guinea pig spinal cord in complete Freund's adjuvant in the hind paws of Lewis rats. Six to ten rats per group are used and somatic symptoms are judged daily on a scale of 0-3. The number of diseased animals as well as the time of onset of the disease is recorded. […] The statistical significance between treated and untreated groups is analyzed on each day using ANOVA analysis of variance followed by Dunn's multiple comparisons. […]

[2] = 1 mg/kg p.o. daily days 0-13, female Lewis rats
[3] = 0.1 mg/kg p.o. daily days 0-13, female Lewis rats
[4] = 0.3 mg/kg p.o. daily days 0-13, female Lewis rats

Compound	First symptoms on day [1, 2]	Number of Animals with EAE/total Day 12 [1, 2]	Number of Animals with EAE/total Day 14 [1, 2]	Prevention of disease symptoms in the acute EAE model [1]	Inhibition of chronic EAE (chronic EAE; 0.3, 0.1 or 0.03 mg/kg/d orally, day 12 to day 33 post-immunization)	Clinical disease compared to vehicle group (chronic EAE; each dose (0.3, 0.1, 0.03 mg/kg/d orally), statistical analysis)	First symptoms on day [1, 3]	Number of Animals with EAE/total Day 12 [1, 3]	Number of Animals with EAE/total Day 14 [1, 3]	First symptoms on day [1, 4]	Number of Animals with EAE/total Day 12 [1, 4]	Number of Animals with EAE/total Day 14 [1, 4]	Prevention of clinical relapses in the chronic relapsing EAE model (chronic-relapsing EAE)
CC[C@](N)(CO)CCc1ccc(Sc2cccc(OCc3ccccc3)c2)cc1Cl [Compound C, (R)-2-amino-4-[4-(3-benzyloxyphenylthio)-2-chlorophenyl]-2-ethylbutane-1-ol]	>14 days	0/5	0/5	lead to prevention of disease symptoms									
NC(CO)(CO)CCc1ccc(Sc2cccc(OCc3ccccc3)c2)cc1Cl [Compound A, 2-amino-2-[4-(3-benzyloxyphenylthio)-2-chlorophenyl]ethyl-propane-1,3-diol]	>14 days	0/5	0/5	lead to prevention of disease symptoms; also recorded: prevents disease symptoms	effectively inhibits chronic EAE	significant reduction in clinical disease	9 days	0/5	3/4	14 days	0/5	1/5	prevents clinical relapses
C[C@](N)(CO)CCc1ccc(Sc2cccc(OCc3ccccc3)c2)cc1Cl [Compound B, (R)-2-amino-4-[4-(3-benzyloxyphenylthio)-2-chlorophenyl]-2-methylbutane-1-ol]	>14 days	0/5	0/5	lead to prevention of disease symptoms									
